Structures are written as SMILES.

Data on 7 compounds can be found in patent publication EP0206747B1, “1,4-Dihydropyridine derivatives useful in the treatment of cardiovascular disorders, and a process for producing the derivatives” (WARNER-LAMBERT COMPANY, priority 1985, dated 1986).

The first assay has as its system Isolated Guinea Pig Atria. In words: In vitro myocardial inotropic activity in isolated guinea pig atria. Conditions: @ 10^-5M; isolated guinea pig left atria electrically stimulated at 1.5 Hz, PSS 30°C. It is filed as cell-based, guinea pigs. How it is done: Test for In Vitro Myocardial Inotropic Activity
in Isolated Guinea Pig Atria
Adult male guinea pigs weighing 300-400 g are reserpenized (2000 units i.p.) and, after ten minutes, are killed by cervical dislocation. The hearts are quickly removed and placed in a physiological salt solution (PSS) containing: 118 mM NaCI, 4.8 mM KCI, 2.4 mM CaCI, 1.2 mM MgS04, 1.0 mM NaH2P04, 11.1 m dextrose, and 27.2 mM NaHC03, maintained at pH 7.4 and 30°C. After removing all superficial blood, the hearts are perfused via the aorta to remove any blood from the coronary arteries. After five to ten minutes of perfusion, the left atria are dissected and mounted vertically in a 50 ml, water-jacketed bather containing PSS at 30°C and continuously oxygenated with 95% O2/5% CO2. The left atria are electrically stimulated at 1.5 Hz. The tissues are equilibrated for 30 minutes and washed with fresh PSS. The stimulation voltage is adjusted to 20% above the threshold and tension adjusted to Lmax (the muscle length at which tension development is maximal). The tissues are then equilibrated for an additional 30 minutes, after which the compounds to be examined are added to the tissue bather. […] The compounds are added in full or half-log concentration increments, usually over a concentration range of 1 x 10-^8 to 1 x 10-^4M. The muscles are generally allowed to assume a new steady-state contractile response before each subsequent addition of drug.
Using this procedure the inotropic activity of preferred compounds of the present invention is shown as found in the following Table 1. The reference calcium antagonist has also been tested for comparison.
Turning to `CCOC(=O)C1=C(C[S+]([O-])c2ccccc2)NC(C)=C(C#N)C1c1ccccc1C(F)(F)F` (single isomer, unassigned) [Example 2 Isomer B, Ethyl 5-cyano-1,4-dihydro-6-methyl-2-[(phenylsulfinyl)methyl]-4-[2-(trifluoromethyl)phenyl]-3-pyridinecarboxylate], the “% Change in Myocardial Contractility (PSCI)” value is “+53%”.

The assay is the same for the next values; noted with them: Cavia porcellus, @ 10^-5M; isolated guinea pig left atria electrically stimulated at 1.5 Hz, PSS 30°C; read-out: % Change in Myocardial Contractility (PSCI).
Consider `CCOC(=O)C1=C(C[S+]([O-])c2ccccc2)NC(C)=C(C#N)C1c1ccccc1C(F)(F)F` (single isomer, unassigned) [Example 2 Isomer A, Ethyl 5-cyano-1,4-dihydro-6-methyl-2-[(phenylsulfinyl)methyl]-4-[2-(trifluoromethyl)phenyl]-3-pyridinecarboxylate], for which the activation at 10 µM is 33%.

As to `CCOC(=O)C1=C(C[S+]([O-])c2ccccc2)NC(C)=C(C#N)C1c1cccc([N+](=O)[O-])c1` (stereo not shown) [Example 2B], the activation at 10 µM came to 30%.

As for `CCOC(=O)C1=C(C[S+]([O-])c2ccccc2)NC(C)=C(C#N)C1c1ccccc1Cl` (stereo not shown) [Example 2D], the activation at 10 µM worked out at 26%.

In the case of `CCOC(=O)C1=C(CS(=O)(=O)c2ccccc2)NC(C)=C(C#N)C1c1ccccc1C(F)(F)F` (stereo not shown) [Example 3A, Ethyl 5-cyano-1,4-dihydro-6-methyl-2-[(phenylsulfonyl)methyl]-4-[2-(trifluoromethyl)phenyl]-3-pyridinecarboxylate], the activation at 10 µM was 26%.

As for `CCOC(=O)C1=C(CS(=O)(=O)c2ccccc2C)NC(C)=C(C#N)C1c1ccccc1C(F)(F)F` (stereo not shown) [Example 3C], the activation at 10 µM was 33%.

As to `CCOC(=O)C1=C(CS(=O)(=O)c2ccccc2Cl)NC(C)=C(C#N)C1c1ccccc1C(F)(F)F` (stereo not shown) [Example 3D], the activation at 10 µM is 33%.
